# Values quoted from earlier work as cited in PubChem BioAssay AID1259409 (Chemical Carcinogenesis Research Information System (CCRIS), 2018).
# System: rodent chemically induced tumor inhibition, incidence and multiplicity
# Assay: CCRIS tumor inhibitor studies
smiles,measurement,setting,value
COc1ccc(-c2oc3c(OC)c(OC)c(OC)c(OC)c3c(=O)c2OC)cc1OC,"tumour outcome (control, treated, inhibition, significance)","Carcinogen: 7,12-DIMETHYLBENZ[A]ANTHRACENE [57-97-6], Dose [Inhibitor]: 85 NMOL IN 0.1 ML ACETONE 2X/WK FOR 20 WK 1 HR PRIOR TO EACH PROMOTER DOSE (STUDY DURATION: 21 WK), Route [Inhibitor]: DERMAL, Species: MOUSE, Strain/Sex: ICR/FEMALE, Target Tissue: Type of Lesion: SKIN: PAPILLOMA, Dose [Carcinogen]: 390 NMOL IN 0.1 ML ACETONE ONCE (STUDY DURATION: 21 WK), Promoter: 12-O-TETRADECANOYL-13-ACETATE [16561-29-8]","100%, 80%, 20%, not calculated"
Oc1cc(O)c2c(c1)O[C@H](c1ccc(O)c(O)c1)[C@H](O)C2,"tumour outcome (control, treated, inhibition, significance)","Carcinogen: 3-METHYLCHOLANTHRENE, 56-49-5, Dose [Inhibitor]: 0, 2 MG IN 0.1 ML STERILE SALINE 1/D FOR 5 CONSECUTIVE D BEGINNING 30 D POST CARCINOGEN TREATMENT (STUDY DURATION: 20 WK, Route [Inhibitor]: GAVAGE, Species: MOUSE, Strain/Sex: SWISS/MALE, Target Tissue: Type of Lesion: INJECTION SITE: SARCOMA, Dose [Carcinogen]: 745 NMOL IN 0.1 ML DMSO 1/D FOR 2 CONSECUTIVE D, Promoter: NONE USED","100%, 33%, 67%, p<0.01"
same,"tumour outcome (control, treated, inhibition, significance)","Carcinogen: 7,12-DIMETHYLBENZ[A]ANTHRACENE, 57-97-6, Dose [Inhibitor]: 0, 2 MG IN 0.1 ML DMSO 2/WK FOR 6 WK ADMINISTERED 30 MIN POST EACH PROMOTER DOSE (STUDY DURATION: 12 WK), Route [Inhibitor]: DERMAL, Species: MOUSE, Strain/Sex: SWISS/MALE, Target Tissue: Type of Lesion: SKIN: PAPILLOMA, Dose [Carcinogen]: 450 NMOL IN 0.1 ML DMSO ONCE, Promoter: CROTON OIL, 8001-28-3","17/30 (57%), 14/30 (47%), 18%, not significant"
C=C1C(=O)O[C@@H]2/C=C(\C)CCC=C(C)CC[C@@H]12,"tumour outcome (control, treated, inhibition, significance)","Carcinogen: AZOXYMETHANE, 25843-45-2, Dose [Inhibitor]: 0, 0.02% IN DIET FOR 4 WK BEGINNING AT TIME OF CARCINOGEN TREATMENT (STUDY DURATION: 33 WK), Route [Inhibitor]: ORAL, Species: RAT, Strain/Sex: F344/MALE, Target Tissue: Type of Lesion: INTESTINE: ADENOMA OR ADENOCARCINOMA, Dose [Carcinogen]: 15 MG/KG BW 1/WK FOR 3 WK, Promoter: NONE USED","15/30 (50%), 5/29 (17%), 66%, p<0.05"
Oc1c(Cl)c(Cl)c(Cl)c(Cl)c1Cl,"tumour outcome (control, treated, inhibition, significance)","Carcinogen: N-HYDROXY-2-ACETYLAMINOFLUORENE, 53-95-2, Dose [Inhibitor]: 0, 0.04 UMOL/G BW IN 10 µL/G BW TRIOCTANOIN ONCE 45 MIN PRIOR TO CARCINOGEN DOSE (STUDY DURATION: 10 MO), Route [Inhibitor]: INTRAPERITONEAL, Species: MOUSE, Strain/Sex: B6C3F1/MALE, Target Tissue: Type of Lesion: LIVER: HEPATOMA, Dose [Carcinogen]: 0.06 UMOL/G BW IN 5 µL/G BW OF 80% DMSO, Promoter: NONE USED","34/34 (100%), 19/33 (58%), 42%, not calculated"
same,"tumour outcome (control, treated, inhibition, significance)","Carcinogen: N-HYDROXY-2-ACETYLAMINOFLUORENE, 53-95-2, Dose [Inhibitor]: 0, 0.04 UMOL/G BW IN 10 µL/G BW TRIOCTANOIN ONCE 45 MIN PRIOR TO CARCINOGEN DOSE (STUDY DURATION: 10 MO), Route [Inhibitor]: INTRAPERITONEAL, Species: MOUSE, Strain/Sex: B6C3F1/MALE, Target Tissue: Type of Lesion: LIVER: HEPATOMA, Dose [Carcinogen]: 0.11 UMOL/G BW IN 5 µL/G BW OF 80% DMSO, Promoter: NONE USED","33/33 (100%), 31/37 (84%), 16%, not calculated"
same,"tumour outcome (control, treated, inhibition, significance)","Carcinogen: N-HYDROXY-2-ACETYLAMINOFLUORENE, 53-95-2, Dose [Inhibitor]: 0, 0.04 UMOL/G BW IN 10 µL/G BW TRIOCTANOIN ONCE 45 MIN PRIOR TO CARCINOGEN DOSE (STUDY DURATION: 10 MO), Route [Inhibitor]: INTRAPERITONEAL, Species: MOUSE, Strain/Sex: B6C3F1/MALE, Target Tissue: Type of Lesion: LIVER: HEPATOMA, Dose [Carcinogen]: 0.22 UMOL/G BW IN 5 µL/G BW OF 80% DMSO, Promoter: NONE USED","39/39 (100%), 31/41 (76%), 24%, not calculated"
